In patent US7674784B2, “Drug and food or drink for improving hyperglycemia” (Morinaga Milk Industry Co., Ltd., priority 2004, dated 2010):
Counter-ions that a name gives are not always drawn.

How the values were obtained:
Type in all cases: in vivo
[1] = system: type-II diabetes model mice (db/db mice); assay: Test Example 3: effective concentration of 24-methylene-9,19-cyclolanostan-3-ol for hemoglobin Alc lowering, 40 days; conditions: for Hemoglobin Alc levels (%) 41st day from the administration: negative sample = 100; for lowering effect for the hemoglobin Alc levels in comparison with negative sample: 41st day
Method: The 24-methylene-9,19-cyclolanostan-3-ol produced in Preparation Example 1 mentioned above was used as a test sample 3.
In this test, 6-week old male db/db mice (purchased from Clea Japan, Inc.) were used as type-II diabetes model mice. These mice were divided into groups, each consisting of 7 animals. The test sample 3 was dissolved in DMSO, and the concentration of 24-methylene-9,19-cyclolanostan-3-ol was adjusted to 0.1 or 1 μg/ml with physiological saline. The final DMSO concentration was adjusted to 0.2%. […] The type-II diabetes model mice were administered with 1 mL of the test sample 3 solution of either concentration or negative sample solution once a day everyday with a sonde for 40 consecutive days. On the 41st day from the start of the repetitive administration, hemoglobin Alc levels were measured by using DCA 2000 (Bayer-Sankyo Co., Ltd.).

[2] = system: type-II diabetes model mice (db/db mice); assay: Test Example 2: hemoglobin Alc lowering action compared with a clinical antidiabetic drug, 22 days; conditions: for Hemoglobin Alc levels (%) 23rd day from the administration: oral 1 mL once a day for 22 days, test samples 1 μg/mL, control sample 1 7.5 μg/mL pioglitazone hydrochloride, negative sample = 100
Method: This test was performed in order to compare the hemoglobin Alc lowering action of the compounds of the present invention with that of an antidiabetic drug used in the clinical practice.
The same test sample 1 (9,19-cyclolanostan-3-ol) and test sample 2 (24-methylene-9,19-cyclolanostan-3-ol) used in Test Example 1 were used.
As type-II diabetes model mice, 6-week old male db/db mice (purchased from Clea Japan, Inc.) were used. These mice were divided into groups, each consisting of 7 animals. Each test sample was dissolved in DMSO, and the concentration was adjusted to 1 μg/mL with physiological saline. The final DMSO concentration was adjusted to 0.2%. […] Further, as a control sample 1, ACTOS® tablets (Takeda Pharmaceutical Co., Ltd.) were ground in a mortar and dissolved in physiological saline so that the concentration of pioglitazone hydrochloride as the active ingredient should become 7.5 μg/mL. The type-II diabetes model mice were orally administered with 1 mL of each test sample solution, control sample 1 solution or negative sample solution once a day everyday with a sonde for 22 consecutive days. On the 23rd day from the start of the administration, hemoglobin Alc levels were measured by using DCA 2000 (Bayer-Sankyo Co., Ltd.).

[3] = system: type-II diabetes model mice (db/db mice); assay: Test Example 4: random and fasting blood glucose levels during repetitive administration, 40 days; conditions: 1 mL once a day for 40 days, test samples 1 μg/mL, control sample 15 μg/ml; for changes over time in random blood glucose levels: FIG. 1; for changes over time in fasting blood glucose levels: after 15 hours of fasting, FIG. 2
Method: This test was performed in order to evaluate the hemoglobin Alc lowering action and hyperglycemia improving effect activity of compounds having the cyclolanostane skeleton.
The 9,19-cyclolanostan-3-ol and 24-methylene-9,19-cyclolanostan-3-ol produced in Preparation Example 1 mentioned above were used as test samples 1 and 2, respectively. Further, β-sitosterol (Tama Biochemical Co., Ltd.) was used as a control sample.
In this test, 6-week old male db/db mice (purchased from Clea Japan, Inc.) were used as type-II diabetes model mice. These mice were divided into groups, each consisting of 7 animals. Each sample was dissolved in DMSO, and the concentrations of 9,19-cyclolanostan-3-ol and […] were adjusted to 1 μg/mL with physiological saline to obtain test sample 1 solution and test sample 2 solution. Further, concentration of β-sitosterol was adjusted to 15 μg/ml in a similar manner to obtain a control sample solution. The final DMSO concentration was adjusted to 0.2%. […] The type-II diabetes model mice were administered with 1 mL of one of the test sample solutions, control sample solution and negative sample solution once a day everyday with a sonde for 40 consecutive days. Fasting blood glucose levels and random blood glucose levels were measured over time by using Antisense II (Bayer-Sankyo Co., Ltd.). The fasting blood glucose levels were measured after 15 hours of fasting.

[4] = system: type-II diabetes model mice (db/db mice); assay: Test Example 1: hemoglobin Alc lowering action, repetitive administration for 45 days; conditions: for Hemoglobin Alc levels (%) 43rd day from the administration: 1 mL of 1 μg/mL once a day with a sonde, negative sample = 100; for lowering effect on hemoglobin Alc levels in comparison with negative sample: 43rd day, 1 mL of 1 μg/mL once a day
Method: This test was performed in order to determine the hemoglobin Alc lowering action of a compound having the cyclolanostane skeleton.
The 9,19-cyclolanostan-3-ol and 24-methylene-9,19-cyclolanostan-3-ol produced in Preparation Example 1 mentioned above were used as test samples 1 and 2, respectively.
As type-II diabetes model mice, 6-week old male db/db mice (purchased from Clea Japan, Inc.) were used in this test. These mice were divided into groups, each consisting of 7 animals. Each test sample was dissolved in DMSO, and the concentration was adjusted to 1 μg/mL with physiological saline. The final DMSO concentration was adjusted to 0.2%. […] The type-II diabetes model mice were administered with 1 mL of either of the test sample solutions or the negative sample solution once a day everyday with a sonde for 45 consecutive days. On the 43rd day of the repetitive administration, hemoglobin Alc levels were measured by using DCA 2000 (Bayer-Sankyo Co., Ltd.).

In the case of “24-methylene-9,19-cyclolanostan-3-ol [Test sample 2]”, the “Hemoglobin Alc levels (%) 41st day from the administration” value ([1]; 0.1 μg (1 mL of 0.1 μg/ml once a day, 40 days)) is reported as 98.1 ± 22.3%, the “Hemoglobin Alc levels (%) 41st day from the administration” value ([1]; 1 μg (1 mL of 1 μg/ml once a day, 40 days)) is reported as 81.6 ± 14.6% and the “lowering effect for the hemoglobin Alc levels in comparison with negative sample” value ([1]; dose of 0.1 μg/day) is reported as “about 1.9%”. For the same compound, the “lowering effect for the hemoglobin Alc levels in comparison with negative sample” value ([1]; dose of 1 μg/day) was 18.4%.
With `CCc1ccc(CCOc2ccc(CC3SC(=O)NC3=O)cc2)nc1` (stereo not drawn) [Control sample 1, pioglitazone hydrochloride, reference compound] the “decreases in hemoglobin Alc levels in comparison with negative sample” value ([2]; 23rd day from the start of the administration) was “about 0.8%” and the “Hemoglobin Alc levels (%) 23rd day from the administration” value (“Hemoglobin Alc levels (%) 23rd day” for short) [2] was 92.1 ± 0.2%.
In the case of `CC[C@H](CC[C@@H](C)[C@H]1CC[C@H]2[C@@H]3CC=C4C[C@@H](O)CC[C@]4(C)[C@H]3CC[C@]12C)C(C)C` [Control sample, β-sitosterol, reference compound], the “changes over time in random blood glucose levels” value [3] is reported as “rapid increase were observed” and the “changes over time in fasting blood glucose levels” value [3] is reported as “rapid increase were observed”.
`CC(C)CCCC(C)C1CCC2(C)C3CCC4C(C)(C)C(O)CCC45CC35CCC12C` (stereo not drawn) [Test sample 1, 9,19-cyclolanostan-3-ol] was tested, and the “Hemoglobin Alc levels (%) 23rd day” value [2] was 85.4 ± 11.2%, the “Hemoglobin Alc levels (%) 43rd day from the administration” value [4] was 91.8 ± 19.6% and the “lowering effect on hemoglobin Alc levels in comparison with negative sample” value [4] was 8.2%. For the same compound, the “changes over time in random blood glucose levels” value [3] was “effect of suppressing the increases in blood glucose levels was clearly observed” and the “changes over time in fasting blood glucose levels” value [3] was “effect of suppressing the increases in blood glucose levels was clearly observed”.
For `C=C(CCC(C)C1CCC2(C)C3CCC4C(C)(C)C(O)CCC45CC35CCC12C)C(C)C` (stereo not drawn) [Test sample 2, 24-methylene-9,19-cyclolanostan-3-ol], the “Hemoglobin Alc levels (%) 23rd day” value [2] was 82.0 ± 7.9%, the “Hemoglobin Alc levels (%) 43rd day from the administration” value [4] was 85.6 ± 9.3% and the “lowering effect on hemoglobin Alc levels in comparison with negative sample” value [4] was 14.5%. For the same compound, the “changes over time in random blood glucose levels” value [3] was “effect of suppressing the increases in blood glucose levels was clearly observed” and the “changes over time in fasting blood glucose levels” value [3] was “effect of suppressing the increases in blood glucose levels was clearly observed”.
